The values that follow come from patent US20220040319A1, “METHODS OF TREATING OCULAR CANCER USING ANTI-MET ANTIBODIES AND BISPECIFIC ANTIGEN BINDING MOLECULES THAT BIND MET” (Regeneron Pharmaceuticals, Inc., priority 2019, published 2022).

The test system of test [1] is MET pathway in NCI-H596 cells. Description: MET and ERK phosphorylation in NCI-H596 cells, immunoblot. It counts as cell-based, human. The settings on record: fold change relative to control, HGF 50 ng/ml, antibody 10 μg/ml. The procedure: 250,000 NCI-H596 cells were seeded in a 12 well plate and cultured in RPMI Media supplemented with 10% FBS. […] The cells were subsequently incubated in 5% CO2 at 37° C. After 0, 2, 6 or 18 hours, cell lysates were prepared, protein content was normalized and immunoblot analysis was performed. MET phosphorylation and ERK phosphorylation were quantified with the ImageJ image processing program (T. Collins, BioTechniques 43: S25-S30, 2007). Phosphorylation levels were normalized to the Tubulin loading control and are expressed as fold change relative to control treatment.
Background: Immunoblotting shows a protein as a band on a membrane.

Another test concerns NCI-H596 cells. Description: NCI-H596 growth in soft agar, AlamarBlue, two weeks. It counts as cell-based, human. The following applies: antibody 5 μg/ml (combination 2.5 μg/ml each), HGF 100 ng/mL. The procedure:
The effect of a MET×MET bispecific antibody on the growth of human non-small cell lung cancer (NSCLC) cells (NCI-H596) was assessed in vitro. 10,000 NCI-H596 lung adenosquamous carcinoma cells (Nair et al., J. Nat'l. Cancer Inst. 86(5): 378-383, 1994) were seeded in 96 well plates on a layer of 0.66% agar in media supplemented with 1% fetal bovine serum (FBS). The cells were cultured in RPMI 1640 media supplemented with 1% FBS with 0.3% agarose. […] The cells were subsequently incubated with 5% CO2 at 37° C. After two weeks, relative cell growth was determined by measuring the reduction of the indicator dye, ALAMAR BLUE® (Thermo Fischer Scientific, Waltham, Mass.), to its highly fluorescent form in a SPECTRAMAX® M3 plate reader (Molecular Devices, Sunnyvale, Calif.). Increasing fluorescence correlates with cell growth. Table 18 and FIG. 14 depict the relative NCI-H596 cell growth for each antibody treatment normalized to control (no treatment) NCI-H596 cell growth.
In general terms: Alamar Blue is a resazurin reagent that responds to reducing activity.

In the case of “HGF: hepatocyte growth factor, MET agonist ligand [reference compound]”, the “Phospho-ERK (mean ± SD)” value in test [1] (2 hours) came out at 16.7 ± 1.6; in test [1] (6 hours) it was 12.4 ± 3.9; in test [1] (18 hours) it was 12.4 ± 0.9. Besides, the “Phospho-MET (mean ± SD)” value was 202.3 ± 38.7 in test [1] (2 hours), 38.9 ± 4.9 in test [1] (6 hours) and 59.2 ± 24.4 in test [1] (18 hours). Moreover, the “Relative Cell Growth (n = 3)” value in the test with NCI-H596 cells turned out to be 7.877.
